Source: PubChem BioAssay (NCI)
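GI50 is the concentration that inhibits growth by half. TGI denotes the concentration required for complete inhibition of growth.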

Key:
Test in all cases: NCI-60 cell line screen, 384-well format
CAKI-1 renal = test system: CAKI-1 renal
U251 glioblastoma = test system: U251 glioblastoma
LOX IMVI melanoma = test system: LOX IMVI melanoma
SF-268 CNS = test system: SF-268 CNS
DU-145 prostate = test system: DU-145 prostate
SNB-19 CNS = test system: SNB-19 CNS
RPMI-8226 leukemia = test system: RPMI-8226 leukemia
SF-295 CNS = test system: SF-295 CNS
SN12C renal = test system: SN12C renal
TK-10 renal = test system: TK-10 renal
MDA-MB-468 breast = test system: MDA-MB-468 breast
MALME-3M melanoma = test system: MALME-3M melanoma
SK-MEL-28 melanoma = test system: SK-MEL-28 melanoma
ACHN renal = test system: ACHN renal
HS 578T breast = test system: HS 578T breast
EKVX NSCLC = test system: EKVX NSCLC
KM12 colon = test system: KM12 colon
HOP-62 NSCLC = test system: HOP-62 NSCLC
UO-31 renal = test system: UO-31 renal
SK-MEL-5 melanoma = test system: SK-MEL-5 melanoma
RXF 393 renal = test system: RXF 393 renal
OVCAR-8 ovarian = test system: OVCAR-8 ovarian
NCI-H322M lung = test system: NCI-H322M lung
A549 NSCLC = test system: A549 NSCLC
786-0 renal = test system: 786-0 renal
COLO 205 colon = test system: COLO 205 colon
IGROV1 ovarian = test system: IGROV1 ovarian
HCC-2998 colon = test system: HCC-2998 colon
SW-620 colon = test system: SW-620 colon

SMILES: CCC[C@H](N[C@@H]1CCc2cc(F)cc(F)c2C1)C(=O)Nc1cn(C(C)(C)CNCC(C)(C)C)cn1
- GI50 (CAKI-1 renal): 14.4 µM
- TGI (CAKI-1 renal): 29.5 µM
- GI50 (U251 glioblastoma): 15.5 µM
- TGI (U251 glioblastoma): 29.3 µM
- GI50 (LOX IMVI melanoma): 17.8 µM
- TGI (LOX IMVI melanoma): 31.9 µM
- GI50 (SF-268 CNS): 15.3 µM
- TGI (SF-268 CNS): 31.3 µM
- GI50 (DU-145 prostate): 17.2 µM
- TGI (DU-145 prostate): 48.8 µM
- GI50 (SNB-19 CNS): 16.8 µM
- TGI (SNB-19 CNS): 39.7 µM
- GI50 (RPMI-8226 leukemia): 358 nM
- TGI (RPMI-8226 leukemia): 11.2 µM
- GI50 (SF-295 CNS): 13.8 µM
- TGI (SF-295 CNS): 26.9 µM
- GI50 (SN12C renal): 19.4 µM
- TGI (SN12C renal): 42.9 µM
- GI50 (TK-10 renal): 16 µM
- TGI (TK-10 renal): 46 µM
- TGI (MDA-MB-468 breast): 1750 nM
- GI50 (MALME-3M melanoma): 2140 nM
- TGI (MALME-3M melanoma): 12.2 µM
- GI50 (SK-MEL-28 melanoma): 12.7 µM
- TGI (SK-MEL-28 melanoma): 25.9 µM
- GI50 (ACHN renal): 15.4 µM
- TGI (ACHN renal): 35.2 µM
- GI50 (HS 578T breast): 12.3 µM
- TGI (HS 578T breast): 25.1 µM
- GI50 (EKVX NSCLC): 14.5 µM
- TGI (EKVX NSCLC): 44.7 µM
- GI50 (KM12 colon): 14.6 µM
- TGI (KM12 colon): 29.8 µM
- GI50 (HOP-62 NSCLC): 15.6 µM
- TGI (HOP-62 NSCLC): 30.1 µM
- GI50 (UO-31 renal): 14.6 µM
- TGI (UO-31 renal): 28.5 µM
- GI50 (SK-MEL-5 melanoma): 11.2 µM
- TGI (SK-MEL-5 melanoma): 23.4 µM
- GI50 (RXF 393 renal): 10.7 µM
- TGI (RXF 393 renal): 24.1 µM
- GI50 (OVCAR-8 ovarian): 16.1 µM
- TGI (OVCAR-8 ovarian): 36.5 µM
- GI50 (NCI-H322M lung): 20.8 µM
- TGI (NCI-H322M lung): 55.4 µM
- GI50 (A549 NSCLC): 13.9 µM
- TGI (A549 NSCLC): 46.8 µM
- GI50 (786-0 renal): 13.4 µM
- TGI (786-0 renal): 26.5 µM
- GI50 (COLO 205 colon): 13.1 µM
- TGI (COLO 205 colon): 36.1 µM
- GI50 (IGROV1 ovarian): 17.3 µM
- TGI (IGROV1 ovarian): 44.6 µM
- GI50 (HCC-2998 colon): 6.98 µM
- TGI (HCC-2998 colon): 19.9 µM
- GI50 (SW-620 colon): 16.2 µM
- TGI (SW-620 colon): 32.2 µM
